Values of other authors as cited in patent publication US20020171063A1, “Reduced toxicity ethylene glycol-based antifreeze/heat transfer fluid concentrates and antifreeze/heat transfer fluids” (priority 2001, published 2002).

Tested on: laboratory rats

Structure (SMILES) | acute oral toxicity (LD50)
CC(O)CO (centres unmarked) [PG, 1,2-propanediol] | 20,000 mg/kg
O.O.O.O.O=B[O-].[Na+] [metaborate] | 1,700 mg/kg
